In patent EP2785358B1, “INSULIN-MIMETICS AS THERAPEUTIC ADJUNCTS FOR BONE REGENERATION” (priority 2011, dated 2013):
Where two headings read alike, the source gives them in different places.

Experiments:
femur fractures [1] = test system: femur fractures; design: Percent Effective Shear Modulus / Percent Effective Shear Stress: scale not given: direction of the effect not stated beside the values; details: no carrier, 4 weeks post-fracture; for Percent Effective Shear Modulus / Percent Effective Shear Stress / Percent Maximum Torque to Failure / Percent maximum torsional rigidity: normalized to intact femur
Experimental: Torsional testing was conducted at 4 weeks post-fracture, using a servohydraulics machine (MTS Sys. Corp., Eden Prairie, MN) with a 20 Nm reaction torque cell (Interface, Scottsdale, AZ). Femurs were tested to failure at a rate of 2.0 deg/sec at four weeks post-fracture. […] In order to compare the biomechanical parameters between different groups, the data was normalized by dividing each fractured femur value by its corresponding intact, contralateral femur value. Torsional mechanical testing is limited by differences in gauge length during bone potting in Field's metal. Placement and dimension of fracture gap can contribute to standard deviations.

femur fractures [2] = details: four weeks post-fracture
Source text: X-rays are taken at two-week intervals to the day of euthanasia. After euthanasia x-rays are taken as well. To take x-rays, animals will be given a half dose of anesthesia. All groups will be monitored closely for four days after surgery for infection, and the ability to ambulate freely.

femur fractures [3] = test system: femur fractures
Source text: The fractured femora were resected at seven and ten days post-fracture, decalcified, dehydrated, embedded in paraffin, and sectioned using standard histological techniques. Sections were stained with Masson's Trichrome (Accustain™ Trichrome Staining kit, Sigma Diagnostics, St. Louis, MO) for histological observation using an Olympus BH2-RFCA microscope (Olympus Optical Co., Ltd., Shinjuku-ku, Tokyo, Japan). Digital images were collected using a Nikon DXM1200F digital camera (Nikon, Tokyo, Japan). Cartilage, new bone, and total callus area were measured from the digital images using Image-Pro Plus software (version 5, Media Cybernetics, Inc., Silver Spring, MD). Total cartilage and new bone area were normalized to total callus area and expressed as the percent area. Two independent reviewers were used to minimize inconsistencies.

[4] = test system: posterolateral lumbar fusion (L4-L5); experiment: Spinal fusion: manual palpation; details: n=10, eight weeks
[5] = test system: posterolateral lumbar fusion (L4-L5); experiment: Spinal fusion: MicroCT bone volume; details: L4/L5 transverse processes and fusion mass, eight weeks
[6] = test system: posterolateral lumbar fusion (L4-L5); experiment: Spinal fusion: radiographic analysis; details: n=10, eight weeks
[7] = manganese chloride 0.125 mg/kg, 7 days post fracture
[8] = manganese chloride 0.125 mg/kg, 10 days post fracture
[9] = manganese chloride 0.3 mg/kg, 7 days post fracture
[10] = manganese chloride 0.3 mg/kg, 10 days post fracture
[11] = manganese chloride 0.87 mg/kg, 7 days post fracture
[12] = manganese chloride 0.87 mg/kg, 10 days post fracture
[13] = Zn-high pellet 1.0 mg/kg, listed as zinc
[14] = Zn-low pellet 0.5 mg/kg, listed as zinc

Structure (SMILES): [Cl][Mn][Cl] [MnCl2, manganese chloride]
- Effective Shear Modulus (femur fractures [1]; MnCl2 0.083 mg/kg local): 8.7×10^2 ± 4.9×10^2 MPa
- Effective Shear Stress (femur fractures [1]; MnCl2 0.083 mg/kg local): 30 ± 8 MPa
- Maximum Torque to Failure (femur fractures [1]; MnCl2 0.083 mg/kg local): 272 ± 39 Nmm
- Maximum Torsional Rigidity (femur fractures [1]; MnCl2 0.083 mg/kg local): 2.6×10^4 ± 1.2×10^4 Nmm^2/rad
- Percent Effective Shear Modulus (femur fractures [1]; MnCl2 0.083 mg/kg local): 8 ± 7%
- Percent Effective Shear Stress (femur fractures [1]; MnCl2 0.083 mg/kg local): 8 ± 4%
- Percent Maximum Torque to Failure (femur fractures [1]; MnCl2 0.083 mg/kg local): 42 ± 5%
- Percent maximum torsional rigidity (femur fractures [1]; MnCl2 0.083 mg/kg local): 56 ± 30%
- Effective Shear Modulus (femur fractures [1]; MnCl2 0.125 mg/kg local): 6.4×10^2 ± 8.8×10^1 MPa
- Effective Shear Stress (femur fractures [1]; MnCl2 0.125 mg/kg local): 21 ± 6 MPa
- Maximum Torque to Failure (femur fractures [1]; MnCl2 0.125 mg/kg local): 351 ± 59^∗ Nmm
- Maximum Torsional Rigidity (femur fractures [1]; MnCl2 0.125 mg/kg local): 4.2×10^4 ± 1.1×10^4 Nmm^2/rad
- Percent Effective Shear Modulus (femur fractures [1]; MnCl2 0.125 mg/kg local): 16 ± 11%
- Percent Effective Shear Stress (femur fractures [1]; MnCl2 0.125 mg/kg local): 14 ± 5%
- Percent Maximum Torque to Failure (femur fractures [1]; MnCl2 0.125 mg/kg local): 54 ± 5%
- Percent maximum torsional rigidity (femur fractures [1]; MnCl2 0.125 mg/kg local): 103 ± 40^∗ Percent
- Effective Shear Modulus (femur fractures [1]; MnCl2 0.25 mg/kg local): 8.1×10^2 ± 5.0×10^2 MPa
- Effective Shear Stress (femur fractures [1]; MnCl2 0.25 mg/kg local): 32 ± 11 MPa
- Maximum Torque to Failure (femur fractures [1]; MnCl2 0.25 mg/kg local): 344 ± 84^∗ Nmm
- Maximum Torsional Rigidity (femur fractures [1]; MnCl2 0.25 mg/kg local): 3.4×10^4 ± 1.6×10^4 Nmm^2/rad
- Percent Effective Shear Modulus (femur fractures [1]; MnCl2 0.25 mg/kg local): 14 ± 9%
- Percent Effective Shear Stress (femur fractures [1]; MnCl2 0.25 mg/kg local): 16 ± 6%
- Percent Maximum Torque to Failure (femur fractures [1]; MnCl2 0.25 mg/kg local): 55 ± 19%
- Percent maximum torsional rigidity (femur fractures [1]; MnCl2 0.25 mg/kg local): 80 ± 34^∗ Percent
- Effective Shear Modulus (femur fractures [1]; MnCl2 0.30 mg/kg local): 7.6×10^2 ± 9.2×10^2 MPa
- Effective Shear Stress (femur fractures [1]; MnCl2 0.30 mg/kg local): 27 ± 23 MPa
- Maximum Torque to Failure (femur fractures [1]; MnCl2 0.30 mg/kg local): 323 ± 135^∗ Nmm
- Maximum Torsional Rigidity (femur fractures [1]; MnCl2 0.30 mg/kg local): 3.0×10^4 ± 2.6×10^4 Nmm^2/rad
- Percent Effective Shear Modulus (femur fractures [1]; MnCl2 0.30 mg/kg local): 10 ± 12%
- Percent Effective Shear Stress (femur fractures [1]; MnCl2 0.30 mg/kg local): 16 ± 12%
- Percent Maximum Torque to Failure (femur fractures [1]; MnCl2 0.30 mg/kg local): 50 ± 22%
- Percent maximum torsional rigidity (femur fractures [1]; MnCl2 0.30 mg/kg local): 50 ± 37%
- Effective Shear Modulus (femur fractures [1]; MnCl2 0.50 mg/kg local): 6.2×10^2 ± 3.5×10^2 MPa
- Effective Shear Stress (femur fractures [1]; MnCl2 0.50 mg/kg local): 19 ± 9 MPa
- Maximum Torque to Failure (femur fractures [1]; MnCl2 0.50 mg/kg local): 230 ± 83 Nmm
- Maximum Torsional Rigidity (femur fractures [1]; MnCl2 0.50 mg/kg local): 2.9×10^4 ± 1.2×10^4 Nmm^2/rad
- Percent Effective Shear Modulus (femur fractures [1]; MnCl2 0.50 mg/kg local): 17 ± 13%
- Percent Effective Shear Stress (femur fractures [1]; MnCl2 0.50 mg/kg local): 14 ± 7%
- Percent Maximum Torque to Failure (femur fractures [1]; MnCl2 0.50 mg/kg local): 38 ± 15%
- Percent maximum torsional rigidity (femur fractures [1]; MnCl2 0.50 mg/kg local): 61 ± 16%
- mineralized tissue on radiographs (femur fractures [2]; MnCl2 0.25 mg/kg): increased mineralized tissue than saline controls
- union on radiographs (femur fractures [2]; MnCl2 group, saline control had no evidence of union): union at the subperiosteal bony area and at the callus
- % Cartilage (femur fractures [3]; [7]): 4.843 ± 2.3 n=6%
- % new bone (femur fractures [3]; [7]): 15.518 ± 2.69 n=6%
- % Cartilage (femur fractures [3]; [8]): 5.9 ± 4.47 n=5%
- % new bone (femur fractures [3]; [8]): 14.69 ± 11.74 n=5%
- % Cartilage (femur fractures [3]; [9]): 2.859 ± 1.09 n=7%
- % new bone (femur fractures [3]; [9]): 15.604 ± 2.39 n=7%
- % Cartilage (femur fractures [3]; [10]): 11.051 ± 3.05 n=9%
- % new bone (femur fractures [3]; [10]): 18.866 ± 2.28^∗,# n=9%
- % Cartilage (femur fractures [3]; [11]): 4.355 ± 3.99 n=3%
- % new bone (femur fractures [3]; [11]): 16.492 ± 3.59 n=3%
- % Cartilage (femur fractures [3]; [12]): 8.227 ± 2.24 n=3%
- % new bone (femur fractures [3]; [12]): 15.948 ± 3.04 n=3%

Structure (SMILES): [Zn] [Zn]
- Manual palpation: number graded A = fused ([4]; Zn-high pellet 1.0 mg/kg): 4
- Manual palpation: number graded B = partially fused ([4]; Zn-high pellet 1.0 mg/kg): 1
- Manual palpation: number graded C = not fused ([4]; Zn-high pellet 1.0 mg/kg): 5
- Manual palpation: number graded A = fused [4, 13]: 4/10
- Manual palpation: number graded B = partially fused [4, 13]: 1/10
- Manual palpation: number graded C = not fused [4, 13]: 5/10
- Manual palpation: number graded A = fused ([4]; Zn-low pellet 0.5 mg/kg): 3
- Manual palpation: number graded B = partially fused ([4]; Zn-low pellet 0.5 mg/kg): 4
- Manual palpation: number graded C = not fused ([4]; Zn-low pellet 0.5 mg/kg): 3
- Manual palpation: number graded A = fused [4, 14]: 3/10
- Manual palpation: number graded B = partially fused [4, 14]: 4/10
- Manual palpation: number graded C = not fused [4, 14]: 3/10
- Mean Bone Volume ([5]; Zn high dose pellet (1.0 mg/kg)): 172.7 mm^3
- Mean Bone Volume ([5]; Zn low dose pellet (0.5 mg/kg)): 172.9 mm^3
- Radiographs: number graded A = solid fusion mass bilaterally ([6]; Zn-high pellet 1.0 mg/kg): 7
- Radiographs: number graded B = unilateral fusion mass ([6]; Zn-high pellet 1.0 mg/kg): 3
- Radiographs: number graded C = small fusion mass bilaterally ([6]; Zn-high pellet 1.0 mg/kg): 0
- Radiographs: number graded D = Graft resorption ([6]; Zn-high pellet 1.0 mg/kg): 0
- Radiographs: number graded A = solid fusion mass bilaterally [6, 13]: 7/10
- Radiographs: number graded B = unilateral fusion mass [6, 13]: 3/10
- Radiographs: number graded C = small fusion mass bilaterally [6, 13]: 0/10
- Radiographs: number graded D = Graft resorption [6, 13]: 0/10
- Radiographs: number graded A = solid fusion mass bilaterally ([6]; Zn-low pellet 0.5 mg/kg): 7
- Radiographs: number graded B = unilateral fusion mass ([6]; Zn-low pellet 0.5 mg/kg): 1
- Radiographs: number graded C = small fusion mass bilaterally ([6]; Zn-low pellet 0.5 mg/kg): 2
- Radiographs: number graded D = Graft resorption ([6]; Zn-low pellet 0.5 mg/kg): 0
- Radiographs: number graded A = solid fusion mass bilaterally [6, 14]: 7/10
- Radiographs: number graded B = unilateral fusion mass [6, 14]: 1/10
- Radiographs: number graded C = small fusion mass bilaterally [6, 14]: 2/10
- Radiographs: number graded D = Graft resorption [6, 14]: 0/10
